Measured values from patent publication US20250109168A1, “POLYPEPTIDE AND USE THEREOF IN REGULATING BLOOD GLUCOSE LEVEL AND/OR REDUCING FAT” (Greenyn Biotechnology Co., Ltd, priority 2023, published 2025).

Legend:
mTOR = assay: Cell test: western blotting of mTOR in C2C12 mouse myoblasts; assay type: cell-based; conditions: final concentration 20 μL/mL, 24 hours
Procedure: (§1) C2C12 mouse myoblasts were obtained and were cultured in groups for 24 hours. After that, the culture medium of each group was added with human insulin (MedChemExpress LLC), polypeptide 1 of the present invention (SEQ ID No.: 1), polypeptide 2 of the invention (SEQ ID No.: 2), polypeptide 3 of the invention (SEQ ID No.: 3), polypeptide 4 of the invention (SEQ ID No.: 4), or polypeptide 5 (whose amino acid sequence number is SEQ ID No.: 5 and which was used for the control group) such that the final concentration of the added insulin/polypeptide in the culture medium was 20 μL/mL. The cells in each group were then cultured for another 24 hours, before the culture medium of each cell group was removed. The cells were subsequently washed with a phosphate-buffered solution, added with a radioimmunoprecipitation assay (RIPA) buffer containing a phosphatase inhibitor, and kept in a refrigerator, allowing reactions to take place for 30 minutes. Following that, the cells were thawed, subjected to vibration extraction with an ultrasonic vibrator for 5 minutes, and centrifuged. The supernatant of each cell group was collected and was analyzed by the western blotting method in order to determine changes in the expression of p-IR/IR, p-Akt, GLUT4, mTOR, PPARα, and p-AMPK in each cell group.

PGC-1α = assay: Cell test: western blotting of PGC-1α in C2C12 mouse myoblasts; assay type: cell-based; conditions: for Expression of PGC-1α, result in words: C2C12 cells, without induction by insulin, summary of Table 6; for PGC-1α (change in expression): C2C12 mouse myoblasts, final concentration 20 μL/mL, 24 hours, western blotting
Procedure: [The source words this procedure for another target and reports this target under the same test.] as §1

PPARα = assay: Cell test: western blotting of PPARα in C2C12 mouse myoblasts; assay type: cell-based; conditions: for Expression of PPARα, result in words: C2C12 cells, without induction by insulin, summary of Table 6; for PPARα (change in expression): C2C12 mouse myoblasts, final concentration 20 μL/mL, 24 hours, western blotting
Procedure: as §1

p-IR/IR = assay: Cell test: western blotting of p-IR/IR in C2C12 mouse myoblasts; assay type: cell-based; conditions: for Insulin receptor phosphorylation (p-IR/IR), result in words: C2C12 cells, without induction by insulin, summary of Table 6; for p-IR/IR (change in expression): C2C12 mouse myoblasts, final concentration 20 μL/mL, 24 hours, western blotting
Procedure: as §1

p-Akt = assay: Cell test: western blotting of p-Akt in C2C12 mouse myoblasts; assay type: cell-based; conditions: for Expression of phosphorylated Akt, result in words: C2C12 cells, without induction by insulin, summary of Table 6; for p-Akt (change in expression): C2C12 mouse myoblasts, final concentration 20 μL/mL, 24 hours, western blotting
Procedure: as §1

GLUT4 = assay: Cell test: western blotting of GLUT4 in C2C12 mouse myoblasts; assay type: cell-based; conditions: for Expression of GLUT4, result in words: C2C12 cells, without induction by insulin, summary of Table 6; for GLUT4 (change in expression): C2C12 mouse myoblasts, final concentration 20 μL/mL, 24 hours, western blotting
Procedure: as §1

p-AMPK = assay: Cell test: western blotting of p-AMPK in C2C12 mouse myoblasts; assay type: cell-based; conditions: final concentration 20 μL/mL, 24 hours
Procedure: as §1

insulin receptor = insulin receptor (mouse, UniProt P15208 28-1372); assay: cell-based or functional assay
Chain of insulin receptor (P15208 28-1372): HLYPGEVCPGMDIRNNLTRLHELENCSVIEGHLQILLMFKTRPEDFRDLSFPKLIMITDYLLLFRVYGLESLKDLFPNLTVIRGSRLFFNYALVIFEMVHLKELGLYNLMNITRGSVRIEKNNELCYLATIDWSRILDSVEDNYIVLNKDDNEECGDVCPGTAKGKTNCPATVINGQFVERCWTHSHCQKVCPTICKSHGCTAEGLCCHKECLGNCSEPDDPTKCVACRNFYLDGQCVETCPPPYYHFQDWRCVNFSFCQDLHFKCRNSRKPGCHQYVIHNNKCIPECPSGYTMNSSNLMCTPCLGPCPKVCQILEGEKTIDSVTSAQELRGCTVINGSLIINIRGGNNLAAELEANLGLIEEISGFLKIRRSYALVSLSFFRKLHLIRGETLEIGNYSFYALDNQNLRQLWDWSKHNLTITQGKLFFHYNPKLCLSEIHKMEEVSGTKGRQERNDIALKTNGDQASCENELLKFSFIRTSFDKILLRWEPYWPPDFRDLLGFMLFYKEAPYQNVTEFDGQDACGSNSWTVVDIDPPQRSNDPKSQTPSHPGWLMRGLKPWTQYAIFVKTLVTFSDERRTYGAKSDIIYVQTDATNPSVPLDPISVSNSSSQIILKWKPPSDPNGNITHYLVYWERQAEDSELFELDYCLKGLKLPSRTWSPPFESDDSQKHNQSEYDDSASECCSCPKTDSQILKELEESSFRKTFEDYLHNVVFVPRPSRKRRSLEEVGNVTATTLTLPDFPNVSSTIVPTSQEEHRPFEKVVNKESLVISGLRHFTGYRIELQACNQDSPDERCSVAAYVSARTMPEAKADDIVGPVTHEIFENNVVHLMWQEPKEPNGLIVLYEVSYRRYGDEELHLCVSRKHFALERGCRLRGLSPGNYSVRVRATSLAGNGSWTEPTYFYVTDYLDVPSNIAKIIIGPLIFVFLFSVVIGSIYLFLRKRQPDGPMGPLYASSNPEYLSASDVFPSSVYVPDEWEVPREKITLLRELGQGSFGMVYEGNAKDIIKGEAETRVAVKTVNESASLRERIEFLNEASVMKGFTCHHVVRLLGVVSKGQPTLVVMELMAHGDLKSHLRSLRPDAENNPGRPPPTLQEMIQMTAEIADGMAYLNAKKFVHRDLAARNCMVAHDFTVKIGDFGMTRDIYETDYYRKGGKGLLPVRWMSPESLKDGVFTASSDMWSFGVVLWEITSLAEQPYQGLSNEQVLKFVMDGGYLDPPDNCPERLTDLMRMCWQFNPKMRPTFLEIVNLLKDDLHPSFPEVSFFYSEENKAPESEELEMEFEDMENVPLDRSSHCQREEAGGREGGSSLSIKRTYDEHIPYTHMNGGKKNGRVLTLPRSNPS

Molecule	mTOR (change in expression) (mTOR)	Expression of PGC-1α, result in words (PGC-1α)	PGC-1α (change in expression) (PGC-1α)	Expression of PPARα, result in words (PPARα)	PPARα (change in expression) (PPARα)	Insulin receptor phosphorylation (p-IR/IR), result in words (p-IR/IR)	Expression of phosphorylated Akt, result in words (p-Akt)	p-Akt (change in expression) (p-Akt)	Expression of GLUT4, result in words (GLUT4)	GLUT4 (change in expression) (GLUT4)	p-AMPK (change in expression) (p-AMPK)	p-IR/IR (change in expression) (p-IR/IR)	p-IR/IR (insulin receptor)
GGGDATRYSTGGGYS [polypeptide 1]	+136%	enhance the expression of PGC-1α	+161%	enhance the expression of PGC-1α and PPARα	+173%	able to encourage insulin receptor phosphorylation	increase the expression of phosphorylated Akt	+196%	increase the expression of phosphorylated Akt and GLUT4	+376%	+232%		
INPNEQREV [polypeptide 2]	+22%	enhance the expression of PGC-1α	+0%	enhance the expression of PGC-1α and PPARα	+62%	able to encourage insulin receptor phosphorylation	increase the expression of phosphorylated Akt	+29%	increase the expression of phosphorylated Akt and GLUT4	+23%	+70%		
VATVIQVL [polypeptide 5, reference compound]	+0%	weaker enhancing effect	+3%	weaker enhancing effect	+23%		failed to increase the expression of phosphorylated Akt	−42%	weaker enhancing effect	+34%	+7%	1	
MQIFVKTLTG [polypeptide 3]	+117%	enhance the expression of PGC-1α	+258%	enhance the expression of PGC-1α and PPARα	+196%	able to encourage insulin receptor phosphorylation	increase the expression of phosphorylated Akt	+153%	increase the expression of phosphorylated Akt and GLUT4	+582%	+210%		
MQIFVK [polypeptide 4]	+74%	enhance the expression of PGC-1α	+155%	enhance the expression of PGC-1α and PPARα	+151%	able to encourage insulin receptor phosphorylation	failure to increase the expression of phosphorylated Akt significantly	−3%	increase the expression of GLUT4	+156%	+91%		
human insulin (MedChemExpress LLC) (from UniProt P01308 25-54; P01308 90-110) (ligand)													1.23
human insulin [reference compound]	−2%		+50%		+40%			+56%		+41%	+1%	1.23	
MQIFVKTLTG [Polypeptide 3]													3.08
MQIFVK [Polypeptide 4]													1.97
INPNEQREV [Polypeptide 2]													1
GGGDATRYSTGGGYS [Polypeptide 1]													1.81
